Test system: PAL, CHS, and F3-OH
Assay: Quantitative RT-PCR of PAL, CHS and F3-OH transcripts in C. dejecta cells
Type: cell-based, Crassula dejecta
Conditions: after 48 hours
Method: Differential induction of mRNA transcripts associated with the synthesis of catechin derivatives in the C. barkleyi suspension culture (as described in Example 2) and the C. dejecta suspension culture (as described in Example 3) were performed in 250 mL conical flasks containing 100 mL of a secondary metabolite production medium B49 (Gamborg's B5, 5% sucrose, no hormones), inoculated with 16 mL of a 14 day old suspension culture (C. barkleyi) or 40 mL of a 21 day old suspension culture (C. dejecta). The cultures were incubated under low light conditions (approximately 30 lux) at 25° C.
Induction of mRNA usually occurs within 48 hours of receipt of an inducing signal. Accordingly, samples were taken at intervals of 2, 4, 6, 10, 15, 24, and 48 hours following the above treatments. Samples, sufficient to give at least 1 mL packed cell volume, were centrifuged for five minutes at 4000 rpm and the supernatant removed. […]
This mixture was incubated at 42° C. for 50 min then denatured at 70° C. for 15 min and stored at −20° C., after a thirty-fold dilution with distilled water. An aliquot of this reaction was then used to quantify the relative abundance of each of the three genes (PAL, CHS, F3-OH) to the invariant one (TBP), using a real time quantification PCR machine (Perkin Elmer 7700) and the previously described oligonucleotides (shown in FIG. 7) in the following conditions: […]

CC/C=C\CC1C(=O)CCC1CC(=O)OC (stereo not shown) [methyl jasmonate]
induction of PAL, CHS, and F3-OH genes: at least 6 fold

From patent publication US20030175678A1, “Methods for identifying genes regulating desired cell phenotypes” (priority 2001, published 2003)
